Structures can show the parent of a compound that is named as a salt.
Biological target: T1, Adrenergic β2 (Homo sapiens, UniProt P07550)
T1 construct: Adherent H292 cells were removed from tissue culture flasks; endogenous in cells; host or cells: H292 cells
Test: Adrenergic β2 mediated cAMP production in H292 cells
Assay type: cell-based
Details: for EC50 / β2 pEC50: H292 cells, cAMP by AlphaScreen, 60 minutes at room temperature, rolipram 300 μM; for EC50: read-out: β2 pEC50 (converted); for β2 Int Act: Intrinsic Activity as a fraction relative to the maximum activity determined for formoterol
Summary of the method: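 H292 cells pretreated 10 min with rolipram (300 μM final), then exposed to agonist 60 min at room temperature in HEPES-buffered HBSS, 1.6% DMSO final. Lysate cAMP quantified by AlphaScreen against a cAMP standard curve; four-parameter fit gives pEC50 and intrinsic activity relative to formoterol maximum.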

T1 sequence (P07550 whole entry): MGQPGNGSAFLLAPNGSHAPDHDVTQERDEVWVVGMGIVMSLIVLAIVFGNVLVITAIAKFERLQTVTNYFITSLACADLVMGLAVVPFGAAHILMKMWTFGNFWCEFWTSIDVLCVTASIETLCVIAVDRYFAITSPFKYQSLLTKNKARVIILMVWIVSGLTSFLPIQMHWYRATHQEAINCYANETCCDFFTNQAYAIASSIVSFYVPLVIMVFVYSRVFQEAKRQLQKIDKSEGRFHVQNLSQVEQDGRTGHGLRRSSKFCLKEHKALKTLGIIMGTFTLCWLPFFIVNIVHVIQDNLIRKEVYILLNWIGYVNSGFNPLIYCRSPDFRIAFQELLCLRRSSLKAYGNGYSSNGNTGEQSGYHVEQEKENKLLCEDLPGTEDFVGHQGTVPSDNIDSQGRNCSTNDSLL

EC50 | β2 Int Act | Structure (SMILES) | β2 pEC50
10 nM | 0.79 | O=C(CCNCCc1ccc(F)cc1)N(CCNCCc1ccc(O)c2[nH]c(=O)sc12)CC12CC3CC(CC(C3)C1)C2 [Example 61, N^1-(1-Adamantylmethyl)-N^3-[2-(4-fluorophenyl)ethyl]-N^1-(2-{[2-(4-hydroxy-2-oxo-2,3-dihydro-1,3-benzothiazol-7-yl)ethyl]amino}ethyl)-β-alaninamide bis-trifluoroacetic acid salt] | –
6.31 nM | 0.68 | O=C(CCNCCc1ccc2c(c1)OCO2)N(CCNCCc1ccc(O)c2[nH]c(=O)sc12)C1CCCCC1 [Example 76, N^3-[2-(1,3-Benzodioxol-5-yl)ethyl]-N^1-cyclohexyl-N^1-(2-{[2-(4-hydroxy-2-oxo-2,3-dihydro-1,3-benzothiazol-7-yl)ethyl]amino}ethyl)-β-alaninamide bis-trifluoroacetic acid salt] | –
0.398 nM | 0.97 | O=C(CCNCCc1cccc(O)c1)N(CCNCCc1ccc(O)c2[nH]c(=O)sc12)C1CCCCC1 [Example 71, N^1-Cyclohexyl-N^1-(2-{[2-(4-hydroxy-2-oxo-2,3-dihydro-1,3-benzothiazol-7-yl)ethyl]amino}ethyl)-N^3-[2-(3-hydroxyphenyl)ethyl]-β-alaninamide bis-trifluoroacetic acid salt] | –
12.6 nM | 0.79 | O=C(CCNC[C@@H](O)c1ccccc1)N(CCNCCc1ccc(O)c2[nH]c(=O)sc12)C1CCCCC1 [Example 74, N^1-Cyclohexyl-N^1-(2-{[2-(4-hydroxy-2-oxo-2,3-dihydro-1,3-benzothiazol-7-yl)ethyl]amino}ethyl)-N^3-[(2S)-2-hydroxy-2-phenylethyl]-β-alaninamide bis-trifluoroacetic acid salt] | –
10 nM | 0.55 | O=C(CCNCCc1ccc(Cl)cc1)N(CCNCCc1ccc(O)c2[nH]c(=O)sc12)C1CCC(F)(F)CC1 [Example 48, N^3-[2-(4-Chlorophenyl)ethyl]-N^1-(4,4-difluorocyclohexyl)-N^1-(2-{[2-(4-hydroxy-2-oxo-2,3-dihydro-1,3-benzothiazol-7-yl)ethyl]amino}ethyl)-β-alaninamide bis-trifluoroacetic acid salt] | –
20 nM | 0.72 | O=C(CCNCCc1ccc(F)cc1Cl)N(CCNCCc1ccc(O)c2[nH]c(=O)sc12)C1CCCCCC1 [Example 57, N^3-[2-(2-Chloro-4-fluorophenyl)ethyl]-N^1-cycloheptyl-N^1-(2-{[2-(4-hydroxy-2-oxo-2,3-dihydro-1,3-benzothiazol-7-yl)ethyl]amino}ethyl)-β-alaninamide bis-trifluoroacetic acid salt] | –
10 nM | 0.81 | O=C(CCNCCc1ccc(F)cc1F)N(CCNCCc1ccc(O)c2[nH]c(=O)sc12)C1CCCCCC1 [Example 55, N^1-Cycloheptyl-N^3-[2-(2,4-difluorophenyl)ethyl]-N^1-(2-{[2-(4-hydroxy-2-oxo-2,3-dihydro-1,3-benzothiazol-7-yl)ethyl]amino}ethyl)-β-alaninamide bis-trifluoroacetic acid salt] | –
6.31 nM | 0.81 | O=C(NCc1ccccc1)c1ccc(CCNCCC(=O)N(CCNCCc2ccc(O)c3[nH]c(=O)sc23)C2CCCCCC2)cc1 [Example 100, N-Benzyl-4-[2-({3-[cycloheptyl(2-{[2-(4-hydroxy-2-oxo-2,3-dihydro-1,3-benzothiazol-7-yl)ethyl]amino}ethyl)amino]-3-oxopropyl}amino)ethyl]benzamide bis-trifluoroacetic acid salt] | –
5.01 nM | 0.59 | O=C(CCNCCc1ccc(Cl)cc1)N(CCNCCc1ccc(O)c2[nH]c(=O)sc12)C1CCCCCC1 [Example 51, N^3-[2-(4-Chlorophenyl)ethyl]-N^1-cycloheptyl-N^1-(2-{[2-(4-hydroxy-2-oxo-2,3-dihydro-1,3-benzothiazol-7-yl)ethyl]amino}ethyl)-β-alaninamide bis-trifluoroacetic acid salt] | –
158 nM | 0.54 | O=C(CCNCCc1nc2ccccc2[nH]1)N(CCNCCc1ccc(O)c2[nH]c(=O)sc12)C1CCCCC1 [Example 77, N^3-[2-(1H-Benzimidazol-2-yl)ethyl]-N^1-cyclohexyl-N^1-(2-{[2-(4-hydroxy-2-oxo-2,3-dihydro-1,3-benzothiazol-7-yl)ethyl]amino}ethyl)-β-alaninamide tris-trifluoroacetic acid salt] | –
10 nM | 0.69 | O=C(CCNCCc1cccc(OC(F)F)c1)N(CCNCCc1ccc(O)c2[nH]c(=O)sc12)C1CCCCCC1 [Example 54, N-Cycloheptyl-N^3-{2-[3-(difluoromethoxy)phenyl]ethyl}-N^1-(2-{[2-(4-hydroxy-2-oxo-2,3-dihydro-1,3-benzothiazol-7-yl)ethyl]amino}ethyl)-β-alaninamide bis-trifluoroacetic acid salt] | –

The next lines start with the compound.

Structure (SMILES) | EC50 | β2 Int Act | β2 pEC50
O=C(CCNCCc1ccc(Cl)cc1)N(CCNCCc1ccc(O)c2[nH]c(=O)sc12)C1CCCCC1 [Example 13, N^3-[2-(4-Chlorophenyl)ethyl]-N-cyclohexyl-N-(2-{[2-(4-hydroxy-2-oxo-2,3-dihydro-1,3-benzothiazol-7-yl)ethyl]amino}ethyl)-β-alaninamide bis-trifluoroacetic acid salt] | 5.01 nM | 0.71 | –
O=C(CCNCCc1cccc(F)c1F)N(CCNCCc1ccc(O)c2[nH]c(=O)sc12)C1CCCCC1 [Example 93, N-Cyclohexyl-N^3-[2-(2,3-difluorophenyl)ethyl]-N-(2-{[2-(4-hydroxy-2-oxo-2,3-dihydro-1,3-benzothiazol-7-yl)ethyl]amino}ethyl)-β-alaninamide dihydrobromide salt] | – | – | 8.6
C[C@H](CNCCC(=O)N(CCNCCc1ccc(O)c2[nH]c(=O)sc12)C1CCCC1)c1ccccc1 [Example 31, N-cyclopentyl-N-(2-{[2-(4-hydroxy-2-oxo-2,3-dihydro-1,3-benzothiazol-7-yl)ethyl]amino}ethyl)-N^3-[(2S)-2-phenylpropyl]-β-alaninamide bis-trifluoroacetic acid salt] | 10 nM | 0.92 | –
O=C(CCNCCc1cccc(F)c1)N(CCNCCc1ccc(O)c2[nH]c(=O)sc12)C1CCCCC1 [Example 15, N-Cyclohexyl-N^3-[2-(3-fluorophenyl)ethyl]-N-(2-{[2-(4-hydroxy-2-oxo-2,3-dihydro-1,3-benzothiazol-7-yl)ethyl]amino}ethyl)-β-alaninamide bis-trifluoroacetic acid salt] | – | – | 8.6
O=C(CCNCCc1cccc(F)c1)N(CCNCCc1ccc(O)c2[nH]c(=O)sc12)C1CCCCCC1 [Example 36, N-Cycloheptyl-N^3-[2-(3-fluorophenyl)ethyl]-N-(2-{[2-(4-hydroxy-2-oxo-2,3-dihydro-1,3-benzothiazol-7-yl)ethyl]amino}ethyl)-β-alaninamide bis-trifluoroacetic acid salt] | 2.51 nM | 0.84 | –
O=C(CCNCCc1cccs1)N(CCNCCc1ccc(O)c2[nH]c(=O)sc12)C1CCCCC1 [Example 35, N-Cyclohexyl-N-(2-{[2-(4-hydroxy-2-oxo-2,3-dihydro-1,3-benzothiazol-7-yl)ethyl]amino}ethyl)-N^3-[2-(2-thienyl)ethyl]-β-alaninamide bis-trifluoroacetic acid salt] | 3.98 nM | 0.91 | –
O=C(CCNCCc1ccc(Cl)c(Cl)c1)N(CCNCCc1ccc(O)c2[nH]c(=O)sc12)C1CCOCC1 [Example 24, N^3-[2-(3,4-Dichlorophenyl)ethyl]-N-(2-{[2-(4-hydroxy-2-oxo-2,3-dihydro-1,3-benzothiazol-7-yl)ethyl]amino}ethyl)-N-(tetrahydro-2H-pyran-4-yl)-β-alaninamide bis-trifluoroacetic acid salt] | 7.94 nM | 0.77 | –
O=C(CCNCCc1cccc(Cl)c1)N(CCNCCc1ccc(O)c2[nH]c(=O)sc12)C1CCC(F)(F)CC1 [Example 47, N^3-[2-(3-Chlorophenyl)ethyl]-N^1-(4,4-difluorocyclohexyl)-N^1-(2-{[2-(4-hydroxy-2-oxo-2,3-dihydro-1,3-benzothiazol-7-yl)ethyl]amino}ethyl)-β-alaninamide bis-trifluoroacetic acid salt] | 3.16 nM | 0.73 | –
CC(C)(C)CN(CCNCCc1ccc(O)c2[nH]c(=O)sc12)C(=O)CCNCCc1cccc(F)c1 [Example 44, N^1-(2,2-Dimethylpropyl)-N^3-[2-(3-fluorophenyl)ethyl]-N^1-(2-{[2-(4-hydroxy-2-oxo-2,3-dihydro-1,3-benzothiazol-7-yl)ethyl]amino}ethyl)-β-alaninamide bis-trifluoroacetic acid salt] | 6.31 nM | 0.73 | –
CC(C)(C)CN(CCNCCc1ccc(O)c2[nH]c(=O)sc12)C(=O)CCNCCc1ccc(Cl)c(Cl)c1 [Example 9, N^3-[2-(3,4-Dichlorophenyl)ethyl]-N-(2,2-dimethylpropyl)-N-(2-{[2-(4-hydroxy-2-oxo-2,3-dihydro-1,3-benzothiazol-7-yl)ethyl]amino}ethyl)-β-alaninamide bis-trifluoroacetic acid salt] | 7.94 nM | 0.65 | –
CC(C)(C)CN(CCNCCc1ccc(O)c2[nH]c(=O)sc12)C(=O)CCNC(C)(C)Cc1ccccc1 [Example 38, N^3-(1,1-Dimethyl-2-phenylethyl)-N-(2,2-dimethylpropyl)-N-(2-{[2-(4-hydroxy-2-oxo-2,3-dihydro-1,3-benzothiazol-7-yl)ethyl]amino}ethyl)-β-alaninamide bis-trifluoroacetic acid salt] | 63.1 nM | 0.42 | –
